Among the data in a melting point compilation (Tetko et al.; mined from patent text by program, amines drawn as free bases though some values may be those of a salt) are melting point values, retold here.

Structures are written as SMILES.

Consider `CC(C)(O)CCc1cc(F)c2ncc(C(=O)NCc3ccc(Cl)cc3)c(O)c2c1`, for which the melting point lay in the range of 219 to 222 °C. Under `CCCCC(C(=O)OCC)c1ccc(N2Cc3ccccc3C2=N)cc1` (configuration not stated) stands 140 to 142 °C.

For `Oc1ccc2c(c1)C(n1cc[nH]c1=S)CCC2` (configuration not stated), the melting point fell in the range of 195 to 196 °C. Under `CCOC(=O)c1sc2nc(-c3ccccc3)cnc2c1N` stands 173 to 175 °C. Under `N=C(NO)c1ccc(N)nc1` stands 300 °C; under `CNC(=O)c1cccc(Br)c1`, 126 °C.

Take `CC(=O)C(CCCc1ccccc1)n1cnc2c(=O)[nH]c(Cc3ccc(OC(F)F)c(N)c3)nc21` (configuration not stated): the melting point lay in the range of 149 to 150 °C. The figure for `CC(C)(C)OC(=O)N1C(CC2CCCCC2)C(C(O)CNS(=O)(=O)C(c2ccccc2)c2ccccc2)OC1(C)C` (configuration not stated) is 58 to 65 °C; for `CN(C)c1ccc(-c2cc(-c3ccnc4c(C(=O)c5cccs5)cnn34)ccc2F)cc1` it is 219 to 221 °C; for `COc1ccc(CCN2CCC(=C3c4ccccc4CCn4ncnc43)CC2)cc1` it is 129 °C. In turn, `COc1cc(OC)nc(Oc2cccc3cc(C)oc(=O)c23)n1` returned a melting point of 188 to 190 °C. The figure for `CC12CCC(O)CC1CCC1C2CCC2(C)C(C(O)CO)CCC12` (configuration not stated) is 210 to 212 °C.

`COc1ccc(NC(=S)C2CC2)cn1` had a melting point of 79 to 83 °C. The figure for `Cc1c(C(=O)Nc2ccc(N3CCOCC3)c(C#N)c2)cnn1-c1ccc(F)cc1` is 201 to 202 °C; for `CCOC(=O)c1cnc(-c2ccccc2OCC2CC2)[nH]c1=O` it is 104 to 105 °C; for `CCCCCOc1cc(C(=O)O)cc(N)c1C(=O)c1ccccc1` it is 168 to 170 °C. For the molecule `CNC(=S)NCCSCc1csc(N)n1`, the melting point is 136 to 140 °C.

Molecule `CCc1noc(-c2cn(-c3cnccn3)cn2)n1` showed a melting point of 166 to 167 °C.

`CCCSc1sc(C(=O)N2CCCC2)c2c1-c1oncc1C(C)(C)C2`: the melting point lay in the range of 72 to 76 °C. The figure for `O=S(=O)(NCc1ccccc1)c1cccc(-c2cc(-c3nc(-c4ccc(C(F)(F)F)cc4)cc(C(F)(F)F)n3)ccn2)c1` is 202 °C; for `CCOCn1c(-c2ccc(Cl)cc2)c(C#N)c(Cl)c1C(F)(F)F` it is 104 °C; for `C=CC(=O)N1CC(c2ccc(Cl)cc2)Sc2ccccc21` (configuration not stated) it is 122 to 124 °C.

The molecule `CC(C)OC(=O)c1cc(-n2c(=O)[nH]c3c(c2=O)CCC3)c(F)cc1Br` showed a melting point of 214 to 216 °C.

As to `Fc1cc(CC2(Cc3ccnc(F)c3)c3ccccc3-c3nc(-c4ccccc4)ncc32)ccn1`, the melting point lay in the range of 213 to 215 °C.

For the molecule `COc1cc(C2C3=C(COC3=O)Nc3ccc4nc(C)sc4c32)ccc1[N+](=O)[O-]` (configuration not stated), the melting point lay in the range of 190 to 191 °C.

In turn, `Nc1cc(=O)n(Cc2ccccc2C(F)(F)F)[nH]1` yielded a melting point of 184 °C. `CCCCCC(COc1ccc(C(=O)O)cc1)c1ccc2c(c1)C(C)(C)CCS2` (racemic) displayed a melting point of 168 to 169 °C. Under `CCC1c2[nH]c3ccccc3c2CC(CO)N1C(=S)SC` (configuration not stated) stands 170 to 172 °C; under `Cc1nc(-c2ccccc2)oc1C(N)=O`, 187 to 190 °C. The figure for `O=c1c2cc(F)c(F)cc2n(-c2cccc(F)c2)c(=O)n1OCc1ccccc1` is 179 to 181 °C; for `CCCn1c(=O)c2c(nc(C=Cc3cc(OC)c(OC)cc3S(=O)(=O)N(CC)CC)n2C)n(CCC)c1=O` it is 227 to 228 °C; for `CCS(=O)(=O)Nc1ccc([N+](=O)[O-])cc1OC1CCCCC1` it is 94 to 95 °C. `COC(=O)c1ccc2scc(-c3ccc(SC)cc3)c2c1`: the melting point was 135 to 136 °C. Under `CC(C)NC1CN(c2c(F)cc3c(=O)c(C(=O)O)cn(-c4nc(N)c(F)cc4F)c3c2Br)C1` stands over 203 °C.

In turn, `CC(C)c1ccccc1NN` registered a melting point of 206 to 210 °C.

`CCNC(=O)n1nc(Oc2ccc([N+](=O)[O-])c(OCC)c2)cc1C` registered a melting point of 110 to 112 °C. Molecule `O=C1c2ccccc2C(=O)N1CC(Cc1ccc([N+](=O)[O-])cc1)=NO` gave a melting point of 181 to 183 °C. Under `C=CC(=O)NC1CC(C)(C)N(C=CC(=O)OCC)C(C)(C)C1` stands 123 to 125 °C; under `O[C@@H]1CN(Cc2ccccc2)C[C@H]1Oc1c(Cl)cccc1Cl` (relative stereo), 78 to 80 °C. Under `COc1cc(C)nc2ccc(NC(=O)C=Cc3ccccc3Cl)cc12` stands 228 to 229 °C.

The molecule `O=c1[nH]c(COc2cccc(Cl)c2Cl)nc2nccnc12` displayed a melting point of 219 to 220 °C.

As to `CCn1cc(C(=O)O)c(=O)c2cc(N)c(-c3cc(C)nc(C)c3)cc21`, the melting point lay in the range of 288 to 290 °C. Take `COC(=O)Cc1ccc(C(=O)c2ccc(C)cc2)[nH]1`: the melting point lay in the range of 118 to 120 °C. For the molecule `Nc1cc(-c2ccncc2)cc2nc(-c3ccccc3)nn12`, the melting point was 207 to 210 °C.

As for `O=C(O)CC1CCCc2c1n(Cc1ccc(Cl)cc1)c1ccc(F)cc21` (single isomer, unassigned; (-)), the melting point was 151 to 152 °C.

As to `CC1(C)CC(=C(c2ccc(O)cc2)c2ccc(-c3ccccc3CO)cc2)CC(C)(C)C1`, the melting point lay in the range of 171 to 172 °C. With `CCOCCCCCCCCCCC(=O)O`, the melting point was in the range of 44 to 45.5 °C. The figure for `CS(=O)(=O)Cc1nnc(-c2ccc3occ(-c4cccc(OC(F)(F)F)c4)c3c2)o1` is 162 to 163 °C; for `COc1ccc(C2(O)OC(=O)C(c3cc(OC)c4c(c3)OCO4)=C2CC2CCCC2)cc1` (configuration not stated) it is 139 to 140 °C.

`CON=CCNC(=O)c1c(I)cccc1C(=O)Nc1ccc(C(F)(F)C(F)(F)F)cc1C`: the melting point turned out to be 110 °C. Under `COc1cc(F)ccc1-c1ccc(S(=O)(=O)N2c3ccccc3CC2C(=O)NCCOc2ccc(C(=O)OC(C)(C)C)cc2)cc1` (configuration not stated) stands 86 °C; under `O=C1N(Cc2ccc(Cl)s2)c2cccc(Br)c2C12COc1cc3c(cc12)OCO3` (configuration not stated), 85 to 87 °C. `O=C(CCCCCN1CCN(c2cccc(C(F)(F)F)c2)CC1)N1Cc2ccc(OCCN3CCCCC3)cc2C1` gave a melting point of 88 °C. Under `O=C1NC(=S)SC1=Cc1ccc2c(c1)N(OCc1ccc(C(F)(F)F)cc1)C(=O)CO2` stands over 300 °C. Take `CCCCn1c(=O)c(N)c(C)n(CCC(C)C)c1=O`: the melting point is 68 to 70 °C. Under `CS(=O)(=O)c1ccc(-c2cc(CCCO)nn2CC2CCCCC2)cc1` stands 94 to 95 °C; under `CNc1nc(-c2cccc(NC(=O)CCc3ccccc3)c2)c2cc(OC)c(OC)cc2n1`, 180 to 182 °C; under `COc1ccc2c(c1)C(NC(=NC#N)SC)CCC2` (configuration not stated), 131 to 132 °C. Consider `CCCc1n[nH]c(=O)c2c(C)ncn12`, for which the melting point was 168 to 170 °C. Consider `CC1(C)CCc2c(ccc3c2C(=O)C(Cl)=C(Cl)C3=O)O1`, for which the melting point lay within 158 to 160 °C. The figure for `CC(=O)Nc1nc(CCc2ccc(C(=O)NC(=N)N)cc2)c(Cc2ccc(S(C)(=O)=O)cc2)s1` is 108 to 110 °C; for `CNC(=S)C1=C(O)C(C)(C)Oc2ccc([N+](=O)[O-])cc21` it is 148 to 149 °C.
